Test results published in patent publication US6593311B2, “Apoptosis inducers” (Takara Shuzo Co., Ltd., priority 1996, dated 2003).
Numbered stars: 1 amine (or outer) side, 2 acyl side, 3 side chain; on linkers, the order of the positions; unused ones are H or OH. Bridge positions count the residues as written; N and C are the ends. Square brackets hold non-standard residues; d marks the D form. Peptide text beside a SMILES is read from it. I, II: the chains in the order shown. Actinocin(9to1) = Cc1c2oc3c(C)ccc(C(=O)[*:1])c3nc-2c(C(=O)[*:2])c(N)c1=O; NMeV = CN[C@H](C(=O)O)C(C)C; Sar = CNCC(=O)O

Tests used:
[1] = tested on: Human colonic cancer cells HCT 116; assay: Viable count (Trypan Blue) and morphology of HCT 116 cells; format: cell-based; conditions: Example 28; for cell morphology (characteristics of apoptosis) / change in cell count / viable count versus incubation time curve (FIG. 29): 0.5 mg/ml, autoclaved; for change in cell count / viable count versus incubation time curve (FIG. 29): 1 to 4 days; for effects of inducing apoptosis, filter-treated samples: 5 mg/ml solutions in PBS treated with a filter
Experimental: Then the suspension was pipetted into a 24-well plate (mfd. by FALCON) at a ratio of 1.8 ml/well. […] As a control, PBS alone was added in the same amount and incubation was effected in the same manner. 1, 2, 3 and 4 days after the initiation of the incubation, the viable cells were counted in accordance with the method described in “Soshiki Baiyo no Gijutsu” (second ed.), Asakura Shuppan, ed. by Nippon Soshiki Baiyo Gakkai, 26-28 (1990), namely, by the Trypan Blue staining method on a counting chamber.
In this figure, the abscissa refers to the incubation time (day) while the ordinate refers to the viable count (×10^4 cells /2 ml) in the culture medium. In FIG. 29, the open circle stands for the control (no addition), the solid circle stands for the sulfated-fucose-containing polysaccharide preparation obtained in Example 1 and the solid square stands for the sulfated-fucose-containing polysaccharide mixture obtained in Example 1.
Then the suspension was pipetted into a 24-well plate (mfd. by FALCON) at a ratio of 1.8 ml/well. […] As a control, PBS alone was added in the same amount and incubation was effected in the same manner. After the initiation of the incubation, the viable cells were counted with the passage of time in accordance with the method described in “Soshiki Baiyo no Gijutsu” (second ed.), Asakura Shuppan, ed. by Nippon Soshiki Baiyo Gakkai, 26-28 (1990), namely, by the Trypan Blue staining method on a counting chamber.

[2] = tested on: Human acute lymphatic leukemia cells MOLT-3; assay: Viable count (Trypan Blue) of MOLT-3 cells; format: cell-based; conditions: Example 24
Experimental: Then the suspension was pipetted into a 24-well plate (mfd. by FALCON) at a ratio of 1.8 ml/well. […] As a control, PBS alone was added in the same amount and incubation was effected in the same manner. 2, 4, 6 and 8 days after the initiation of the incubation, the cells were counted by the Trypan Blue staining method.
In this figure, the abscissa refers to the incubation time (day) while the ordinate refers to the viable count (×10^4 cells /2 ml) in the culture medium. In FIG. 28, the open circle stands for the control (no addition), the solid circle stands for the sulfated-fucose-containing polysaccharide-F obtained in Example 12, the open square stands for the sulfated-fucose-containing polysaccharide obtained in Example 1, the open triangle stands for that obtained in Example 17 and the solid square stands for that obtained in Example 15.

[3] = tested on: Human premyelocytic leukemia cells HL-60; assay: Viable count (Trypan Blue) and microscopic morphology of HL-60 cells; format: cell-based; conditions: Example 25; 10 μg/ml solution of actinomycin D; 20 hours
[4] = tested on: Human premyelocytic leukemia cells HL-60; assay: DNA ladder detection by agarose gel electrophoresis in HL-60 cells
[5] = tested on: Human acute lymphatic leukemia cells MOLT-3; assay: DNA ladder detection by agarose gel electrophoresis in MOLT-3 cells; conditions: Example 23; 10 μg/ml solution of actinomycin D; 20 hours

With dextran sulfate the “cell morphology (characteristics of apoptosis)” value [1] was “showed characteristics of apoptosis such as the shrinkage and fragmentation of the cells”, the “change in cell count” value [1] was “little increase or a decrease in cell count” and the “viable count versus incubation time curve (FIG. 29)” value [1] was “substantially the same curve as the one of the sulfated-fucose-containing polysaccharide preparation of Example 1”. The “effects of inducing apoptosis, filter-treated samples” value [1] was “the same results were obtained”, the “effects of inducing apoptosis, autoclaved samples” value ([2]; 0.5 mg/ml in PBS, autoclave 121° C. 20 minutes) was “the same results were obtained” and the “apoptosis induction and growth inhibition (viable count, FIG. 28)” value ([2]; 0.2 ml of 0.5 mg/ml solution per 1.8 ml well (text: concentration of 0.5 mg/ml), 2, 4, 6 and 8 days) was “induce the apoptosis of the MOLT-3 cells and considerably inhibit the growth of these cells”. For the same compound, the “viable count versus incubation time curve (FIG. 28)” value ([2]; 2 to 8 days) was “substantially the same curve as the one obtained by using the sulfated-fucose-containing polysaccharide of Example 15”.

For `Cc1c2oc3c(C)ccc(C(=O)N[C@@H]4C(=O)N[C@H](C(C)C)C(=O)N5CCC[C@H]5C(=O)N(C)CC(=O)N(C)[C@@H](C(C)C)C(=O)O[C@@H]4C)c3nc-2c(C(=O)N[C@@H]2C(=O)N[C@H](C(C)C)C(=O)N3CCC[C@H]3C(=O)N(C)CC(=O)N(C)[C@@H](C(C)C)C(=O)O[C@@H]2C)c(N)c1=O` [actinomycin D] (I: T[dV]P[Sar][NMeV] / II: T[dV]P[Sar][NMeV]; ester I:1-I:C, II:1-II:C; linker I:N-II:N via Actinocin(9to1)), the “cell morphology (shrinkage and fragmentation)” value [3] was “the shrinkage and fragmentation of the cells were observed”, the DNA ladders ([4]; Example 20, 10 μg/ml solution of actinomycin D, 20 hours) was “DNA ladders were observed” and the DNA ladders ([4]; Example 35, Actinomycin D as substitute for F-Fd-4) was “DNA ladders were observed”. The DNA ladders [5] was “DNA ladders were observed”.

With heparin the “cell morphology (characteristics of apoptosis)” value [1] was “showed characteristics of apoptosis such as the shrinkage and fragmentation of the cells”, the “change in cell count” value [1] was “little increase or a decrease in cell count” and the “viable count versus incubation time curve (FIG. 29)” value [1] was “substantially the same curve as the one of the sulfated-fucose-containing polysaccharide preparation of Example 1”. For the same compound, the “effects of inducing apoptosis, filter-treated samples” value [1] was “the same results were obtained”.
